This note sets out measurements from patent US20240270779A1, “NOVEL PHENYLPROPANOID COMPOUND” (NABOCUL COSMETICS CO., LTD., priority 2021, published 2024).

The test system of data set [1] is B16 melanoma cells. The data set is described as follows: Amount of melanin produced in B16 melanoma cells (melanogenesis inhibition). In kind it is cell-based, mouse. The conditions noted are these: for inhibition at 10 µM: concentration 10 μM. How it is done: (§1) In this test, B16 melanoma cells were used. A B16 melanoma cell, a mouse skin melanoma-derived cell line, has melanogenic capacity. B16 melanoma cells were cultured in a DMEM medium (containing 10% FBS, 100 U/mL penicillin and […] streptomycin) in the presence of 5% CO2 at 37° C. and saturated humidity.
(§2) Ceratonia siliqua B was diluted with a DMEM medium to obtain sample solutions with different concentrations of 1 μM, 5 μM, 10 μM, 50 μM and 100 μM.
A single cell suspension of B16 melanoma cells was prepared, and 4×10^4 B16 melanoma cells were seeded in each well of a 12-well microplate. After culturing overnight in a CO2 incubator, the supernatant was removed, and the wells were divided into a blank control group, a positive control group and a test group. A 1 mL portion of a DMEM medium was added to each well of the blank control group, a 1 mL portion of each of solutions of L-ascorbic acid dissolved in DMEM medium at different concentrations (a concentration of L-ascorbic acid: 0.1 μM, 5 μM, 10 μM) was added to each well of the positive control group, and a 1 mL portion of each of the sample solutions from the above (b) was added to each well of the test group. After culturing for 48 hours, the supernatant was removed from each well followed by washing twice with PBS buffer, treatment with trypsin and addition of 1.2 mL of PBS buffer to prepare a single cell suspension. A 200 μL aliquot of this cell suspension was taken to determine the protein content. The remaining cell suspension was centrifuged at 3000 rpm for 5 minutes to remove the supernatant. Thereafter, 250 μL of a 1 M NaOH solution containing 1% DMSO was added thereto and dissolved for 30 minutes in a water bath heated to 80° C. A 200 μL aliquot of this solution was taken and the absorbance at 405 nm (Atest group, Apositive control group, Ablank control group) was measured. The test was performed in triplicate (3 wells) for the blank control group, for the positive control group and for each concentration of the sample solution in the test group (n=3).
The intracellular melanogenesis inhibition rate (%) was determined for the test group and the positive control group by the following equations:
[formula] • wherein Atest group is the absorbance of the test group, Apositive control group is the absorbance of the positive control group, and Ablank control group is the absorbance of the blank control group.

For data set [2], the system named is HepG2 cells. Put plainly: Measurement of ROS in HepG2 cells (hydrogen peroxide induced, DCFH-DA). The conditions noted are these: 1-100 μM, 24 hours pre-culture, 400 μM hydrogen peroxide 90 minutes, FIG. 12. Type of data set: cell-based, human. The method, then:
Ceratonia siliqua B obtained in Example 2 was used to examine the effect of Ceratonia siliqua B on the generation of reactive oxygen species (ROS) in living cells.
(§3) In this test, a HepG2 cell, a human liver-derived tumor cell line was used as a living cell. HepG2 cells were cultured in a DMEM medium (containing 10% FBS, 100 U/mL penicillin and […] streptomycin) in the presence of 5% CO2 at 37° C. and saturated humidity.
A HepG2 cell suspension having a concentration of 1×10^5 cells/mL was prepared, and a 100 μL portion of the cell suspension was seeded in each well of a 96-well microplate and cultured in a CO2 incubator for 24 hours. These wells were divided into a blank control group, a positive control group and a test group. […] Thereafter, the medium in each well was removed, 100 μL of PBS was added thereto, and fluorescence intensity at 535 nm was measured at an excitation wavelength of 485 nm. The amount of ROS generated in the positive control group and the test group was calculated taking the fluorescence intensity of the blank control group as 1.0 (basal). […]

Data set [3] can be described thus: DPPH radical scavenging activity. Type of data set: biochemical. Conditions: sample solutions 1-100 μM, 30 minutes at room temperature in the dark, absorbance 517 nm, FIG. 10. The method, then:
Ceratonia siliqua B obtained in Example 2 was used to measure the DPPH radical scavenging activity of Ceratonia siliqua B.
First, Ceratonia siliqua B obtained in Example 2 was accurately weighed out and dissolved in methanol to prepare a sample solution with a concentration of 100 μM. This sample solution having a concentration of 100 μM was further diluted with methanol to obtain sample solutions with different concentrations of 1 μM, 5 μM, 10 μM and 50 μM. Next, 2 mg of DPPH (2,2-diphenyl-1-picrylhydrazyl) was dissolved in 50 mL of methanol to prepare a 100 μM DPPH solution.
A 190 μL portion of the DPPH solution was placed in each of wells of a 96-well microplate, and 10 μL of the sample solution was quickly added thereto. […] Thereafter, the absorbance at 517 nm (Asample) was measured with a microplate reader. The reaction solution to which methanol was added instead of the sample solution was used as a blank, and the absorbance of the blank (Ablank) was measured. In addition, the absorbance (Asample blank) due to coloration of the sample solution itself at each concentration was measured as a sample blank. […]
The radical scavenging rate (%) was determined by the following equation.
[formula] • wherein Ablank is the absorbance of the blank, Asample is the absorbance of the sample solution, and Asample blank is the absorbance of the sample blank.

The subject of data set [4] is HepG2 cells. The data set is described as follows: MTT cytotoxicity test on HepG2 cells. Type of data set: cell-based, human. The conditions noted are these: concentrations of 1 to 100 μM, 48 hours, FIG. 11. The method, then:
as §3, §2
First, an MTT test was performed to confirm the presence or absence of cytotoxicity of Ceratonia siliqua B against HepG2 cells. HepG2 cells that have been subcultured for three generations or more were treated with trypsin to prepare a single cell suspension having a concentration of 1×10^5 cells/mL. A 100 μL portion of this cell suspension was seeded in each well of a 96-well microplate and cultured in a CO2 incubator for 24 hours. After culturing, the supernatant was removed, and the wells were divided into a control (blank control) group and a test group. […] After 4 hours, the supernatant was removed, a 150 μL portion of DMSO was added to each well, and the absorbance at 570 nm was measured with a microplate reader. […]
(§4) The cell viability of the test group was calculated taking the value for the control (blank control) group as 100.
A general note: Tetrazolium assays rely on reduction of a dye to a coloured formazan, in cell work by metabolically active cells.

Data set [5] has as its system B16 melanoma cells. Put plainly: MTT cytotoxicity test on B16 melanoma cells. Type of data set: cell-based, mouse. Conditions: concentrations of 1 to 100 μM, 48 hours, FIG. 13. How it is done: as §1, §2
First, an MTT test was performed to confirm the presence or absence of cytotoxicity of Ceratonia siliqua B against B16 melanoma cells. B16 melanoma cells that had been subcultured for three generations or more were treated with trypsin to prepare a single cell suspension having a concentration of 3×10^4 cells/mL. A 100 μL portion of this cell suspension was seeded in each well of a 96-well microplate and cultured overnight in a CO2 incubator. The supernatant was removed from each well, and the wells were divided into a control (blank control) group and a test group. […] After 4 hours, the supernatant was removed, a 150 μL portion of DMSO was added to each well, and the absorbance at 570 nm was measured with a microplate reader. […]
as §4

Where [6] appears, read: Mus musculus, B16, 48 h, 48 hours, B16 melanoma cells, read-out: Melanogenesis inhibition rate (%).

Regarding `O=C1O[C@H]([C@@H](O)CO)C(O)=C1O` [L-Ascorbic acid, L-ascorbic acid, reference compound], the inhibition (commonly the share of the control response that was lost under treatment) at 0.1 µM in the data set on B16 melanoma cells [1] (Mus musculus, B16, 48 h, concentration 0.1 μM, 48 hours, B16 melanoma cells, read-out: Melanogenesis inhibition rate (%)) is 9.2%. Moreover, the inhibition at 5 µM with B16 melanoma cells [1] (Mus musculus, B16, 48 h, concentration 5 μM, 48 hours, B16 melanoma cells, read-out: Melanogenesis inhibition rate (%)) is 15.6%. Also, in the data set on B16 melanoma cells [1] (setting [6]), the inhibition at 10 µM came out at 32.8%.
As for `COc1cc(/C=C/COC(=O)C(C)C)cc(OC)c1O[C@@H]1O[C@H](CO)[C@@H](O)[C@H](O)[C@H]1O` [Ceratonia siliqua B], the “ROS generation inhibiting effect in HepG2 cells” value in the data set on HepG2 cells [2] is “inhibited the increase in ROS induced by hydrogen peroxide in HepG2 cells in a concentration-dependent manner”. Further, the “DPPH radical scavenging activity” value in data set [3] is “scavenge DPPH radicals in a concentration-dependent manner”. Moreover, the inhibition at 10 µM with B16 melanoma cells [1] (setting [6]) was determined as 20.2%. Moreover, the inhibition at 50 µM in the data set with B16 melanoma cells [1] (Mus musculus, B16, 48 h, concentration 50 μM, 48 hours, B16 melanoma cells, read-out: Melanogenesis inhibition rate (%)) worked out at 25.6%. Besides, the inhibition at 100 µM in the data set on B16 melanoma cells [1] (Mus musculus, B16, 48 h, concentration 100 μM, 48 hours, B16 melanoma cells, read-out: Melanogenesis inhibition rate (%)) was over 30%. In the data set with B16 melanoma cells [1] (concentration of 10 to 100 μM, P<0.05), the “inhibition effect on melanogenesis in B16 melanoma cells (in words)” value was “significant inhibition effect on melanogenesis”. For the same compound, the “cytotoxicity against HepG2 cells (MTT, cell viability)” value in the data set with HepG2 cells [4] is “no cytotoxicity”. Besides, the “cytotoxicity against B16 melanoma cells (MTT, cell viability)” value with B16 melanoma cells [5] is “no cytotoxicity”.
